One block for each compound: values may come before it.
What was measured:
HDAC3 [1] = target: T1, HDAC3 (Homo sapiens, UniProt O15379); experiment: HDAC3 abundance by quantitative fluorescence western blotting in HCT116 cells; format: cell-based; settings: for Dose response degradation of HDAC3: 24 h, 0.01-10 μM, two independent biological replicates; for HDAC3 abundance / degradation: initial screen, 24 hours
T1 construct: endogenous in cells; host or cells: HCT116 (ATCC CCL-247)
Protocol: (§1) We screened these compounds side-by side with JPS004 a VHL based HDAC1–3 targeting PROTAC and the HDAC1–3 inhibitor CI-994 as control compounds for degradation and inhibition, respectively. […] HCT116 cells were incubated for 24 hours with the compounds and HDAC1, HDAC2 and HDAC3 abundance was quantified by fluorescence western blotting. We also determined the effects on Histone 3 Lysine 56 acetylation (H3K56ac) levels as a secondary assay, for in-cell HDAC inhibition or degradation. […] Similar to our previous observations with VHL recruiting PROTACs, HDAC2 reduction was less affected. It was noteworthy that 7 also incorporated a 12 carbon alkyl linker, which has been an effective linker in our previous studies.[10],[11] Pleasingly, compounds 3–8 also had more modest effects on HDAC3 abundance compared to previously reported VHL recruiting PROTACs.[6]–[13] […] However, while surprising, it is not unprecedented as we and others have observed similar effects on histone acetylation markers with HDAC3 targeting PROTACs.[11],[13],[18]
(§2) Fig. 3 HDAC1, HDAC2, HDAC3 abundance were determined by quantitative western blotting with antibodies for HDAC1, HDAC2, HDAC3 in HCT116 cells after 24 hours. H3K56 acetylation levels were also determined by quantitative western blotting with an antibody for H3K56ac, and the fold change was compared between compounds at 10 μM, normalising treatment with inhibitor CI 994 = 1.0.
(§3) Supplementary Information: Biology
(§4) 1. Cell Culture, Compound Handling and Western Blotting Protocols
(§5) The HCT116 cell line used in this study was obtained from ATCC (CCL-247). HCT116 human colon carcinoma cells were grown in a Dulbecco’s modified Eagle medium (GIBCO, 41965-039) supplemented with 10% FBS (Sigma) and 1X glutamine/penicillin/streptomycin (GIBCO, 10378−016). Cells were incubated at 37 °C with 5% CO2. Cells were treated with compounds at indicated concentrations (0.01−10 μM). All compounds were made up to a standard solution of 10 mM in DMSO, serially diluted in DMSO, then added to fresh medium (5 mL total) to afford the concentrations stated (0.01−10 μM), with a final DMSO volume of […]
(§6) HCT116 cells were seeded into 6-well plates (4 × 10^5 cells/well) for 24 hours and then treated with DMSO or compounds at the indicated concentrations in fresh medium (5 mL total). After 24 hours treatment time, the cells were harvested and then lysed in lysis buffer (50 mM Tris-HCl, 150 mM NaCl, 0.5% NP-40, 0.5% Triton X-100) supplemented with a protease inhibitor (Sigma, P8340). The suspension was incubated on ice for 30 min, then centrifuged (18,000 rcf, 15 min, 4 °C) and the supernatant collected. Protein concentrations were quantified via Bradford Assay using Protein Assay Dye Reagent Concentrate (BIO-RAD). For histone extraction, an equal volume of 0.4 N H2SO4 was added to the pellets, and the extracts were placed at 4 °C overnight, centrifuged (18,000 rcf, 15 min, 4 °C), then the supernatant (histone extract) collected.
(§7) Western blots were run on NuPAGE 4−12% bis−Tris gels with 30 μg of protein or 10 μL of ac id-extracted histone loaded per lane, using NuPAGE LDS sample buffer (4X). PageRuler Plus Prestained Ladder was used for size standards. After gel electrophoresis at 140 V for 90 min, the separated proteins were transferred onto a nitrocellulose membrane at 30 V for 60 min. The membranes were probed with primary antibodies (as indicated below) for 60−90 min. Blots were developed with complimentary IRDye®-conjugated secondary antibodies, and the bands were visualized using an Odyssey infrared imaging system. Image processing and band intensity quantification were performed using Image Studio Lite.
(§8) 2. Western Blotting Results
(§9) 2.1. Western Blotting Analysis of Compounds 3-15 from Initial Screen
(§10) Figure S1. Western blotting of HDAC1/2/3 proteins in HCT116 cells treated with compounds 3-15.
(§11) (1 picture or pasted object on this page, not shown here)

HDAC1 [2] = target: T2, HDAC1 (Homo sapiens, UniProt Q13547); experiment: HDAC1 abundance by quantitative fluorescence western blotting in HCT116 cells; format: cell-based; settings: for Dose response degradation of HDAC1: 24 h, 0.01-10 μM, two independent biological replicates; for HDAC1 abundance: at 0.1 μM and 1 μM
T2 construct: endogenous in cells; host or cells: HCT116 (ATCC CCL-247)
Protocol: as §1, §2, §3, §4, §5
HCT116 cells were seeded into 6-well plates (4 × 10^5 cells/well) for 24 hours and then treated with DMSO or compounds at the indicated concentrations in fresh medium (5 mL total). After 24 hours treatment time, the cells were harvested and then lysed in lysis buffer (50 mM Tris-HCl, 150 mM NaCl, 0.5% NP-40, 0.5% Triton X-100) supplemented with a protease inhibitor (Sigma, P8340). The suspension was incubated on ice for 30 min, then centrifuged (18,000 rcf, 15 min, 4 °C) and the supernatant collected. Protein concentrations were quantified via Bradford Assay using Protein Assay Dye Reagent Concentrate (BIO-RAD). […] Western blots were run on NuPAGE 4−12% bis−Tris gels with 30 μg of protein or 10 μL of ac id-extracted histone loaded per lane, using NuPAGE LDS sample buffer (4X). PageRuler Plus Prestained Ladder was used for size standards. After gel electrophoresis at 140 V for 90 min, the separated proteins were transferred onto a nitrocellulose membrane at 30 V for 60 min. The membranes were probed with primary antibodies (as indicated below) for 60−90 min. Blots were developed with complimentary IRDye®-conjugated secondary antibodies, and the bands were visualized using an Odyssey infrared imaging system. Image processing and band intensity quantification were performed using Image Studio Lite.
as §8, §9, §10, §11

H3K56ac = experiment: Histone 3 Lysine 56 acetylation (H3K56ac) levels by quantitative western blotting in HCT116 cells; format: cell-based, human; settings: for H3K56 acetylation levels: rescreen with methylated controls (Fig. 4C); for H3K56ac levels: initial screen, HCT116 cells, 24 hours, fold change compared at 10 μM
Protocol: as §1, §2, §3, §4, §5, §6
as §7, with “Blots were developed with complimentary IRDye®-conjugated secondary antibodies, and the bands were visualized using an Odyssey infrared imaging system.” left out, “Lite. […]” for “Lite.”

HDAC2 [3] = target: T3, HDAC2 (Homo sapiens, UniProt Q92769); experiment: HDAC2 abundance by quantitative fluorescence western blotting in HCT116 cells; format: cell-based; settings: for Dose response degradation of HDAC2: 24 h, 0.01-10 μM, two independent biological replicates; for HDAC2 abundance / HDAC2 abundance / degradation: initial screen, 24 hours; for HDAC2 abundance: at 0.1 μM and 1 μM
T3 construct: endogenous in cells; host or cells: HCT116 (ATCC CCL-247)
Protocol: as §1, §2, §3, §4, §5, §6, §7, §8, §9, §10, §11

HDAC3 [4] = test system: HDAC3; parameters: method as in PMID 35293758; settings: previous findings; cited from earlier work
HDAC2 [5] = test system: HDAC2; parameters: method as in PMID 35293758; settings: previous findings; cited from earlier work
HDAC1 [6] = test system: HDAC1; parameters: method as in PMID 35293758; settings: previous findings; cited from earlier work
HDAC2 [7] = test system: HDAC2; parameters: method as in PMID 35008795; settings: cited from earlier work
HDAC1 [8] = test system: HDAC1; parameters: method as in PMID 35008795; settings: cited from earlier work
HDAC3 [9] = test system: HDAC3; parameters: method as in PMID 35008795; settings: cited from earlier work

T1 sequence (O15379 whole entry): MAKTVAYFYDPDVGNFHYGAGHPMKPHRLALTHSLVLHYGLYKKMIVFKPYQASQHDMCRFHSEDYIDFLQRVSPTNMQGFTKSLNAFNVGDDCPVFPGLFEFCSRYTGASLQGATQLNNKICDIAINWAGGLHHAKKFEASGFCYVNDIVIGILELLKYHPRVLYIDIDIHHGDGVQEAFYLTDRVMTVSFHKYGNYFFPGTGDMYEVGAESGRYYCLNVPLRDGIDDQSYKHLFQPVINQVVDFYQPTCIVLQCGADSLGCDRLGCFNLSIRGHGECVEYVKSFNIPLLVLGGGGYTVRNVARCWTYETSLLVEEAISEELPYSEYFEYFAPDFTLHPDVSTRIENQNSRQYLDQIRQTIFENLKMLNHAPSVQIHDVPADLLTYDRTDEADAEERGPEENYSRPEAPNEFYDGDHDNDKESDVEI
T1 sequence (Q9Y618 whole entry partner): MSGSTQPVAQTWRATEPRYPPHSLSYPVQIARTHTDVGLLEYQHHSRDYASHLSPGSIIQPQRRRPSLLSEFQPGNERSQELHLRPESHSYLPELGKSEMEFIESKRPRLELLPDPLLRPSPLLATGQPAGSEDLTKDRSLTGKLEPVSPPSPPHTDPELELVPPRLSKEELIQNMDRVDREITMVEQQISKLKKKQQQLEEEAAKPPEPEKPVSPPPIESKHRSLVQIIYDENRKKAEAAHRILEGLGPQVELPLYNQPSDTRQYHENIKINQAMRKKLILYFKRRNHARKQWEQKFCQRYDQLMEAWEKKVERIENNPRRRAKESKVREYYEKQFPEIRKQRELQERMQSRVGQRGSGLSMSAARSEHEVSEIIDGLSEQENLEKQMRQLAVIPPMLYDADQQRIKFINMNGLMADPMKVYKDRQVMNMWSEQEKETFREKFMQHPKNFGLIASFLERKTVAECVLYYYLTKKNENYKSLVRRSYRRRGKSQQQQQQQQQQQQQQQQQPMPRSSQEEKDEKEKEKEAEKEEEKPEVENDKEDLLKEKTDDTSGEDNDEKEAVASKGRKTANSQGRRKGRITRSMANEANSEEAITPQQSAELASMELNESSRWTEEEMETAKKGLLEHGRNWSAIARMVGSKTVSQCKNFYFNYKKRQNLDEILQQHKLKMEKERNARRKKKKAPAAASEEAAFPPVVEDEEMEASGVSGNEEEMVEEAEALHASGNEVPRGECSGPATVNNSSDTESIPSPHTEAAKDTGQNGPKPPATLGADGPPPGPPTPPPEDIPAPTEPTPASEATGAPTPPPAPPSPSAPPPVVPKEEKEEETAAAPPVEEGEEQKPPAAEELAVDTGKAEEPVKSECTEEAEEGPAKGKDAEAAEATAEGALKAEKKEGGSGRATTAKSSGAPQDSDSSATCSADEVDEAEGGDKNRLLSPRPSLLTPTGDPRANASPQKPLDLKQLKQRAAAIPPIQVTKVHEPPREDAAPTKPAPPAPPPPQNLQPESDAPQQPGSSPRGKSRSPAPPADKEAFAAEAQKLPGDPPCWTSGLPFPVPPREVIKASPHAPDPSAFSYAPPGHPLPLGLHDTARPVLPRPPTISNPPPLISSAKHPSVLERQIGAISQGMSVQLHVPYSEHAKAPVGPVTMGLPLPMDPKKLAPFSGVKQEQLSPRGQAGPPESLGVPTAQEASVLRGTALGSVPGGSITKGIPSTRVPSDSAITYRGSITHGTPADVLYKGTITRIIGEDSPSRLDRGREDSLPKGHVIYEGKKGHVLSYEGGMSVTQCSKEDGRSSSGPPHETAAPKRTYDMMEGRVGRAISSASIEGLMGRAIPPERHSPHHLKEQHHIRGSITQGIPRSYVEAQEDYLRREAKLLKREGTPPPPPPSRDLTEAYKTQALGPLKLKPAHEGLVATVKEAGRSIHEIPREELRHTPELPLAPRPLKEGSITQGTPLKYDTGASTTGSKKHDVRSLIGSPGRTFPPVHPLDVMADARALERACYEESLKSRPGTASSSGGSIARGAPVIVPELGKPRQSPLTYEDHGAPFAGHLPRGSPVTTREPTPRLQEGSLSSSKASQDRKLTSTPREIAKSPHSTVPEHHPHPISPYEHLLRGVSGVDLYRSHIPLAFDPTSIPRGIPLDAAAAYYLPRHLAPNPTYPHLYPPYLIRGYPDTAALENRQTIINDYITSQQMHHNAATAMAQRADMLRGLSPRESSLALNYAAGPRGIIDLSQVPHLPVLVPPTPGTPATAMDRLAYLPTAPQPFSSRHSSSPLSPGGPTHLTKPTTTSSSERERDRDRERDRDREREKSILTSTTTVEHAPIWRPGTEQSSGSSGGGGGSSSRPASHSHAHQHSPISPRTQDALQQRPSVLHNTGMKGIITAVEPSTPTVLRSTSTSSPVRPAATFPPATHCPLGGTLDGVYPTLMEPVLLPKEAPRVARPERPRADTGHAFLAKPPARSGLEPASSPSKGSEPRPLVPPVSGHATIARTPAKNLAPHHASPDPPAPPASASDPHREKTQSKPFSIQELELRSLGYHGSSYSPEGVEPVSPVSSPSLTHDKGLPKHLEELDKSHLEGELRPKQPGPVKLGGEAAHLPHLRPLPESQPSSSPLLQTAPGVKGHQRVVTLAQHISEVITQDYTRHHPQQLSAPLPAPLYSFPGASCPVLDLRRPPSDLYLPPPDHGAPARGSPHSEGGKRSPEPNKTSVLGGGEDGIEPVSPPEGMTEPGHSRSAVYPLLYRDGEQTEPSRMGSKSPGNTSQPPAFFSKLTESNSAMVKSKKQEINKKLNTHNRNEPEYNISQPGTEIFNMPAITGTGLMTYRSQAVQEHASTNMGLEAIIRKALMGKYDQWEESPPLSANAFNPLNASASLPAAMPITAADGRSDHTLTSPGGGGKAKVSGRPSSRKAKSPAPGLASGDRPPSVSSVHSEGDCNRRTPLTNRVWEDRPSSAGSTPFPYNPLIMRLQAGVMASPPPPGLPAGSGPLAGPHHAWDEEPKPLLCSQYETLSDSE
T3 sequence (Q92769 whole entry): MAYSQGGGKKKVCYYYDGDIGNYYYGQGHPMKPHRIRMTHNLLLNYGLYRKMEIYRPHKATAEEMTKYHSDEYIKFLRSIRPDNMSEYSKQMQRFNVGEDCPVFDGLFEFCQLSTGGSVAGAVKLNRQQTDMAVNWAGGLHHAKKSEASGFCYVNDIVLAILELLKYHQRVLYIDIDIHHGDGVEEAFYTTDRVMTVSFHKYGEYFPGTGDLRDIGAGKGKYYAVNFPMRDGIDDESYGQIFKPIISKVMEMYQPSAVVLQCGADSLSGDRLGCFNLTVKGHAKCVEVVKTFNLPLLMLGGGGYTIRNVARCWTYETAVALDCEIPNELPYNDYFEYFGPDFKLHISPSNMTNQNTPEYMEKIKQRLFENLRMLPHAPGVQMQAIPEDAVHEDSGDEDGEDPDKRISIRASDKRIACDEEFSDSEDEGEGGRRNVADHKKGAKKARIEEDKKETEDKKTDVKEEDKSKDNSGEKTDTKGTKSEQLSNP
T2 sequence (Q13547 whole entry): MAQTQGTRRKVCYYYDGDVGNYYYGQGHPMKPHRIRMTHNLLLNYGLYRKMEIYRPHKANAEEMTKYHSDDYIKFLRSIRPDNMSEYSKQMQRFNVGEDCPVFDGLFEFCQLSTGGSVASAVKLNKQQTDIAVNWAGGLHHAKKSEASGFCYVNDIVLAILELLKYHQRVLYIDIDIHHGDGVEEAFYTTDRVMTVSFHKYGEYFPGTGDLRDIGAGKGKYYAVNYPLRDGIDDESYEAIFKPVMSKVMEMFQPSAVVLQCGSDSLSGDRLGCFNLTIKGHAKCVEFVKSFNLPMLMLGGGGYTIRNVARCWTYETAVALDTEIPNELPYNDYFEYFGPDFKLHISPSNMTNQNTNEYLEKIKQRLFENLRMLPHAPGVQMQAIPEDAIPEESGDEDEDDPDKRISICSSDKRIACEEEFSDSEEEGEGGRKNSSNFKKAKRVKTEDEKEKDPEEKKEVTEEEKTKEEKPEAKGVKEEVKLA

Dose response degradation of HDAC3 (HDAC3 [1]): a hook effect was observed
Dose response degradation of HDAC1 (HDAC1 [2]): dose dependent degradation
Dose response degradation of HDAC2 (HDAC2 [3]): dose dependent degradation
SMILES: Nc1ccccc1NC(=O)c1cnc(N2CCN(C(=O)CCC3CCN(c4cccc5c4C(=O)N(C4CCC(=O)NC4=O)C5=O)CC3)CC2)cn1 (stereo not shown) [Compound 5]
H3K56 acetylation levels (H3K56ac): increasing H3K56ac levels

SMILES: Cc1ncsc1-c1ccc(CNC(=O)[C@@H]2C[C@@H](O)CN2C(=O)[C@@H](NC(=O)C2(F)CC2)C(C)(C)C)c(OCCCCCCCCCCCC(=O)Nc2ccc(C(=O)Nc3ccccc3N)cc2)c1 [JPS036]
HDAC3 degradation selectivity over HDAC1/2 (HDAC3 [4]): can enhance HDAC3 degradation selectivity over HDAC1/2

Dose response degradation of HDAC3 (HDAC3 [1]): HDAC3 degradation was abolished
HDAC3 abundance / degradation (HDAC3 [1]): no HDAC3 degradation
HDAC1 abundance (HDAC1 [2]; initial screen, 24 hours): reduced
HDAC2 abundance (HDAC2 [3]): reduced
SMILES: Nc1ccc(-c2ccc(F)cc2)cc1NC(=O)c1cnc(N2CCN(C(=O)CCC3CCN(c4cccc5c4C(=O)N(C4CCC(=O)NC4=O)C5=O)CC3)CC2)cn1 (stereo not shown) [Compound 12]
Dose response degradation of HDAC1 (HDAC1 [2]): very similar dose dependent degradation of HDAC1 and HDAC2 to 5
degradation selectivity (HDAC1 over HDAC3) (HDAC1 [2]; 24 hours): selective degradation of HDAC1 over HDAC3
Dose response degradation of HDAC2 (HDAC2 [3]): very similar dose dependent degradation of HDAC1 and HDAC2 to 5

SMILES: Nc1ccc(-c2ccc(F)cc2)cc1NC(=O)c1cnc(N2CCN(C(=O)CCCCCCCCCCCNc3cccc4c3C(=O)N(C3CCC(=O)NC3=O)C4=O)CC2)cn1 (stereo not shown) [Compound 14]
HDAC1 abundance / degradation (HDAC1 [2]; initial screen, 24 hours): less effective at HDAC1 degradation compared to 11 and 12

SMILES: Cc1ncsc1-c1ccc(CNC(=O)[C@@H]2C[C@@H](O)CN2C(=O)[C@@H](NC(=O)CCCCCCCCCCC(=O)Nc2ccc(C(=O)Nc3ccccc3N)cc2)C(C)(C)C)cc1 [JPS004]
HDAC2 degradation (HDAC2 [5]): degrade
HDAC1 degradation (HDAC1 [6]): degrade
HDAC3 degradation (HDAC3 [4]): HDAC3 degradation is compromised at concentrations >1 μM due to the hook effect

SMILES: Nc1ccc(-c2ccc(F)cc2)cc1NC(=O)c1cnc(N2CCNCC2)cn1 [Compound 1]
IC50 (HDAC2 [7]): 340 nM
IC50 (HDAC1 [8]): 160 nM
IC50 (HDAC3 [9]): 6700 nM

HDAC3 abundance / degradation (HDAC3 [1]): no effects
HDAC1 abundance / degradation (HDAC1 [2]; initial screen, 24 hours): no effects
HDAC2 abundance / degradation (HDAC2 [3]): no effects
SMILES: Nc1ccc(-c2ccc(F)cc2)cc1NC(=O)c1cnc(N2CCN(CCCCCCNc3cccc4c3C(=O)N(C3CCC(=O)NC3=O)C4=O)CC2)cn1 (stereo not shown) [Compound 10]
H3K56ac levels (H3K56ac): increase H3K56ac levels to greater levels than DMSO controls

Dose response degradation of HDAC3 (HDAC3 [1]): minimal HDAC3 degradation
Dose response degradation of HDAC1 (HDAC1 [2]): clear dose dependent HDAC1 degradation
HDAC1 degradation (HDAC1 [2]; initial screen, 24 hours, at 1 μM): greatest HDAC1 degradation
SMILES: Nc1ccccc1NC(=O)c1cnc(N2CCN(C(=O)CCCCCCCCCCCNc3cccc4c3C(=O)N(C3CCC(=O)NC3=O)C4=O)CC2)cn1 (stereo not shown) [Compound 7]
degradation selectivity (HDAC1 over HDAC3) (HDAC1 [2]; 24 hours): selective degradation of HDAC1 over HDAC3
H3K56ac levels (H3K56ac): did not increase H3K56ac levels
H3K56 acetylation levels (H3K56ac): did not increase H3K56 acetylation levels

SMILES: Cc1ncsc1-c1ccc(CNC(=O)[C@@H]2C[C@@H](O)CN2C(=O)[C@@H](NC(=O)COCCCCCCCCCOCC(=O)Nc2ccc(C(=O)Nc3ccccc3N)cc2)C(C)(C)C)cc1 [JPS016]
HDAC2 degradation (HDAC2 [5]): degrade
HDAC1 degradation (HDAC1 [6]): degrade
HDAC3 degradation (HDAC3 [4]): hook effect for HDAC3

HDAC3 abundance / degradation (HDAC3 [1]): no HDAC3 degradation
HDAC1 abundance (HDAC1 [2]; initial screen, 24 hours): reduced
HDAC2 abundance (HDAC2 [3]): reduced
SMILES: Nc1ccc(-c2ccc(F)cc2)cc1NC(=O)c1cnc(N2CCN(C(=O)CCCCCNc3cccc4c3C(=O)N(C3CCC(=O)NC3=O)C4=O)CC2)cn1 (stereo not shown) [Compound 11]

HDAC3 abundance / degradation (HDAC3 [1]): no effects
HDAC1 abundance / degradation (HDAC1 [2]; initial screen, 24 hours): no effects
HDAC2 abundance / degradation (HDAC2 [3]): no effects
SMILES: Nc1ccccc1NC(=O)c1cnc(N2CCN(C(=O)CCCCCCCC(=O)NCCNc3cccc4c3C(=O)N(C3CCC(=O)NC3=O)C4=O)CC2)cn1 (stereo not shown) [Compound 9]
H3K56ac levels (H3K56ac): increase H3K56ac levels to greater levels than DMSO controls

SMILES: Nc1ccc(-c2ccc(F)cc2)cc1NC(=O)c1cnc(N2CCN(C(=O)CCCCCCCC(=O)N3CCN(c4cccc5c4C(=O)N(C4CCC(=O)NC4=O)C5=O)CC3)CC2)cn1 (stereo not shown) [Compound 15]
HDAC1 abundance / degradation (HDAC1 [2]; initial screen, 24 hours): less effective at HDAC1 degradation compared to 11 and 12
